Reference: patent US12385042B2, “Cell-penetrating peptides” (VECTIOPEP OÜ, priority 2019, dated 2025)
Where a SMILES comes first, the peptide text is derived from it. Bridges are numbered along the chain shown (N, C = ends). Roman numbers before positions name the chains, in order. [ ]: non-standard residue; d: D form. The star is where a group is joined. Arachidoyl = CCCCCCCCCCCCCCCCCCCC(=O)*; Orn = NCCC[C@H](N)C(=O)O

What was measured:
[1] = test system: U87 MG-luc2 human glioma cells, stably expressing luc2; test: Luciferase gene downregulation by CPP/siRNA (siLuc2) complexes; assay type: cell-based; conditions: for Red (%) (reduction, based on remaining luminescence on U87 cells post-treatment): siRNA against luciferase
Protocol: (§1) For assessing the siRNA mediated RNAi, CHO-GFP or U87-luc2 cells (5×10^5 cells per well) were seeded on a 24-well plate a day prior to the experiment and grown in serum containing media. On experiment day, prior to adding pre-formed complexes ( 1/10th of the final volume per well), media was replaced with fresh serum containing medium.
(§2) For complex formation, peptide was mixed with luc2 siRNA (sense 5′-[…]-3′ (SEQ ID NO:7), antisense 5′-[…] 3′ (SEQ ID NO:8), Metabion, Germany) or with siRNA against GFP (5′-[…] (SEQ ID NO:9), 3′-[…] (SEQ ID NO:10)) in mQ water (pH 5.3-6.3) using peptide to siRNA molar ratios (MR is the ratio of peptide to siRNA) […] and incubated at RT for 1 h. For siLuc2, the final concentration in media was 25 nM and for siGFP 100 nM. Cells were co-incubated with complexes for 4 h (37° C., 5% CO2), thereafter fresh serum containing media was added and followed by further incubation (20 h for siLuc2 or 44 h for siGFP complexes). Luciferase gene downregulation was measured from cell lysates with Promega luciferase assay system (Promega, Sweden) in combination with GLOMAX 96 microplate luminometer equipped with GLOMAX 1.9.2 software (Promega). GFP was measured after treatment from cell lysates on black 96-well plates by measuring total fluorescence (Symergy MX, BioTek Instruments, USA equipped with Gen5 1.10 software). The results were normalized to the protein content of each sample (DC Protein Assay, BioRad, USA).
Luciferase activity was determined as described in previous paragraph.
For determination of pH dependency on the transfection efficiency, complexes were formed at MR30, incubated and diluted before addition to cells to obtain siRNA final concentration 10 nM in transfection media. HEPES buffer supplemented with 10% FBS was used as transfection media. Complexes were co-incubated with cells for 4 h and then media was replaced with cell growth media. After further 20 h incubation cells were lysed and analyzed as described previously.
The experiment was carried out in serum containing media (10% FBS). CPP/siRNA complexes were formed at different molar ratios with siRNA concentration kept constant (50 nM in transfection media). Luminescence from luciferin-luciferase reaction was measured at 24 hours post-treatment from cell lysate. Results were normalized to protein content and luminescence values from untreated cells (100%).

[2] = Fluorescent dye (PicoGreen) intercalation and heparin displacement assay of CPP/siRNA complexes; assay type: physicochemical; conditions: MR30, no heparin
Protocol: Complexation of siRNA and CPPs was assessed by Quant-iT™ PicoGreen® (PG) (Thermo Fisher Scientific, USA) assay in mQ water. Complexes were prepared as described previously, following addition of diluted PG. For detection, complexes (⅕ of volume), water (3/5) and PG (1/5) working dilution was incubated for 5 minutes and fluorescence was measured by fluorimeter (λex=492 nm, λem=535 nm) (SynergyMx, BioTek). For heparin displacement, instead of water, heparin salt solution at different concentrations were used and complexes incubated at 37° C. for 30 min before addition of PG dilution. Complex formation was also confirmed by gel electrophoresis (details in section 2.11).

murine red blood cells = test: Membrane activity assay on murine red blood cells: hemolysis; assay type: cell-based, mouse
Protocol: For evaluation of membrane activity of peptides, hemolysis assay was used. For this whole blood was collected from mouse (adult, BALB/c) saphenous vein into a heparinized collection tube. Blood was centrifuged (2300× g, 15 min) to separate cells (red blood cells-RBC) from the plasma. RBCs were washed according to following procedures.
RBCs were washed with 10 ml 0.9% NaCl saline and centrifuged (600× g, 15 min). Supernatant was discarded after each centrifugation. This was repeated at least 3 times. RBCs were re-suspended in 5 ml saline and distributed equally to tubes and centrifuged (600× g, 15 min). The cells were washed and re-suspended in 2× PBS with the required pH (pH 5.5-7.5). The hemoglobin content in stocks was measured after lysis of cells with equal volume of 0.1% Triton X100 supplemented with 5% glucose. The cell suspension was diluted accordingly for each pH value to obtain similar concentration range of hemoglobin in stocks. To each 100 ul of peptide solution 100 ul of 10% glucose was added, mixed, and equal volume (200 ul) of RBC in 2× PBS were added and gently mixed. Peptide solution with RBCs was incubated at 37° C. for 1 h with gentle mixing (max 300 rpm) after which samples were centrifuged to pellet intact cells from the solution. Hemoglobin from lysed cells was determined from each sample from the supernatant on transparent 96-well plates by measuring the absorbance at 540 nm.
Controls were incubated in similar manner as samples. As a non-hemolysis control mQ supplemented with glucose (0%) was used and for hemolytic control 0.1% TritonX-100 with glucose (100%) was used (cells are suspended in 2× PBS before addition). Final percent was calculated as follows: […]
For hemolytic concentration determination 2× PBS at pH 7.5 was used for incubation and 1× PBS at pH 7.5 was used for washing. Everything else is as described in previous paragraph.

[3] = test system: CHO stably expressing green fluorescent protein (GFP); test: GFP gene downregulation by CPP/siGFP complexes (lysate fluorescence, FACS, confocal); assay type: cell-based
Protocol: as §1, §2
For flow cytometry analysis (FACS) analysis CHO-GFP cells were seeded and treated as described previously. After incubation, cells were washed with 1× PBS and detached from plates with trypsin-EDTA (0.25%), and re-suspended in PBS supplemented with FBS (5%) and transferred to transparent U-bottom 96-well plates. FACS was carried out with BD LSR II flow cytometer (BD Biosciences, San Jose, CA, USA) equipped with a 488 nm argon laser. Population of viable cells was determined from scatter plot: forward scattered plot (FSC) vs. side scattered light (SSC) plot. A minimum of 10,000 events from the viable cell population per sample were analyzed using BD FACS Diva software. Results are shown as the population with GFP signal lower than that of 0.1% of untreated cells.
For confocal microscopy 2×10^5 cells per chamber were seeded on NUNC 8-chamber plates. After treatment with complexes (25 ul of pre-formed CPP/siRNA complexes added to cells in 225 ul serum containing media), incubated (48 h) and GFP florescence images of cells were captured using confocal microscope Zeiss LSM 710 and excitation at 488 nm (493-616 filter).

Compound	Red (%) (reduction, based on remaining luminescence on U87 cells post-treatment) ([1]; CPP/siRNA complexes)	further results
CCCCCCCCCCCCCCCCCCCC(=O)N[C@@H](Cc1c[nH]cn1)C(=O)N[C@@H](Cc1c[nH]cn1)C(=O)N[C@@H](Cc1c[nH]cn1)C(=O)N[C@@H](Cc1c[nH]cn1)C(=O)N[C@@H](Cc1c[nH]cn1)C(=O)N[C@@H](Cc1c[nH]cn1)C(=O)N[C@@H](Cc1ccc(O)cc1)C(=O)N[C@@H](Cc1c[nH]cn1)C(=O)N[C@@H](Cc1c[nH]cn1)C(=O)NCC(=O)NCCC[C@H](N)C(=O)N[C@H](C(=O)N[C@@H](CC(C)C)C(=O)N[C@@H](CC(C)C)C(=O)N[C@@H](CCCCN)C(=O)N[C@@H](C)C(=O)N[C@@H](CC(C)C)C(=O)N[C@@H](CCCCN)C(=O)N[C@@H](C)C(=O)N[C@@H](CC(C)C)C(=O)N[C@@H](C)C(=O)N[C@@H](CCCCN)C(=O)N[C@@H](C)C(=O)N[C@H](C(=O)N[C@@H](CC(C)C)C(N)=O)[C@@H](C)CC)[C@@H](C)CC [NF72] (I: H-[Orn]ILLKALKALAKAIL-NH2 / II: Arachidoyl-HHHHHHYHHG; amide I:1-II:C)	80	luciferase downregulation efficiency (in words) ([1]; CPP/siRNA complexes, comparison between CPPs): significantly less efficient than other compared CPPs; remaining reporter activity ([1]; molar ratio 30 (MR30, peptide to siRNA), untreated cells 100%): 34%; accessibility of siRNA in complexes (dye intercalation) [2]: low accessibility of siRNA; HC50 Free peptide (murine red blood cells; free peptide, pH 7.5): >10 µM; hemolytic activity of free peptide (in words) (murine red blood cells; free peptide, up to 10 uM): less hemolytic than that of other peptides; pH dependent hemolytic activity (in words) (murine red blood cells; peptide 0.75 uM, buffer pH 5.5-7.5): almost no effect at physiologic pH, but lysed almost all cells at pH 5.5; cells with downregulated reporter gene (GFP signal below threshold), FACS ([3]; CHO-GFP, CPP/siGFP complexes): 40%; GFP signal in confocal images ([3]; live cells treated with CPP/siGFP complexes): higher GFP signal when compared to complexes formed with peptides with less histidines in sequence
HHHYHHGO^eILLKALKALAKAIL [NF715, group H5; C18 saturated fatty acid on N-terminus; C-terminally amidated]	62	–
HHHHHYHHGO^eILLKALKALAKAIL [NF723, group H7; C20 saturated fatty acid on N-terminus; C-terminally amidated]	49	–
HHHHHHYLLGO^eILLKALKALAKAIL [NF707, group H6^2 (histidines before tyrosine); C18 fatty acid on N-terminus; C-terminally amidated]	70	–
HYHHGO^eILLKALKALAKAIL [NF726, group H3; C20 saturated fatty acid on N-terminus; C-terminally amidated]	50	–
HHHHHHYLLGO^eILLKALKALAKAIL [NF708, group H6^2 (histidines before tyrosine); C20 fatty acid on N-terminus; C-terminally amidated]	71	–
HHYHHGO^eILLKALKALAKAIL [NF717, group H4; C16 saturated fatty acid on N-terminus; C-terminally amidated]	43	–
HHHYHHGO^eILLKALKALAKAIL [NF718, group H5; C22 saturated fatty acid on N-terminus; C-terminally amidated]	75	–
HHHHHYHHGO^eILLKALKALAKAIL [NF719, group H7; C18 saturated fatty acid on N-terminus; C-terminally amidated]	39	–
HHHHHHYHHGO^eILLKALKALAKAIL [NF721, group H8; C18 saturated fatty acid on N-terminus; C-terminally amidated]	55	–
HHHHHYHHGO^eILLKALKALAKAIL [NF724, group H7; C22 saturated fatty acid on N-terminus; C-terminally amidated]	40	–
HHHHHHGO^eILLKALKALAKAIL [NF706, C22 fatty acid on N-terminus; C-terminally amidated]	59	–
HHYHHGO^eILLKALKALAKAIL [NF713, group H4; C22 saturated fatty acid on N-terminus; C-terminally amidated]	47	–
HHHHHHYLLGO^eILLKALKALAKAIL [NF709, group H6^2 (histidines before tyrosine); C22 fatty acid on N-terminus; C-terminally amidated]	55	–
HHYHHGO^eILLKALKALAKAIL [NF712, group H4; C20 saturated fatty acid on N-terminus; C-terminally amidated]	83	–
HHHHHHYHHGO^eILLKALKALAKAIL [NF722, group H8; C22 saturated fatty acid on N-terminus; C-terminally amidated]	45	–
HHHHYHHGO^eILLKALKALAKAIL [NF701, group H6; C10 (decanoyl) fatty acid on N-terminus; C-terminally amidated]	20	–
HHHHYHHGO^eILLKALKALAKAIL [NF711, group H6; C16 saturated fatty acid on N-terminus; C-terminally amidated]	35	–
